Laboratory results as given in patent US20260183274A1, “PDK1 REGULATORY COMPOUND AND COMPOSITION CONTAINING THE SAME” (PROVIBIO CO., LTD., priority 2024, published 2026).

Experiments:
[1] = system: Human B Lymphocyte cell line, SU-DHL-8; experiment: Relative cell viability CCK-8, SU-DHL-8; assay type: cell-based; details: for viability at 1 µM / viability at 10 µM / viability at 30 µM / viability at 50 µM: Homo sapiens, SU-DHL-8, 48 h; for viability at 1 µM: read-out: Relative cell viability (%), SU-DHL-8, 1 μM; for viability at 10 µM: read-out: Relative cell viability (%), SU-DHL-8, 10 μM; for viability at 30 µM: read-out: Relative cell viability (%), SU-DHL-8, 30 μM; for viability at 50 µM: read-out: Relative cell viability (%), SU-DHL-8, 50 μM
Experimental: Human-derived B lymphoma cell line SU-DHL-8 (Cat. #CRL-2961) purchased from ATCC was cultured in RPMI-1640 medium containing 10% FBS, 100 U/mL penicillin, and 100 μg/mL streptomycin.
The cell culture medium was then harvested, centrifuged at 1,300 rpm for 5 minutes, and the supernatant was removed. The cells were resuspended in the same medium and dispensed into a 96-well plate (Costar 96-well cell culture plate, Corning) at 90 μL per well, resulting in the conditions specified in Table 5.
Then, 10 μL of CCK-8 was added to each well, and the plates were incubated again at 37° C. in a 5% CO2 incubator for 4 hours.
In other words, when the survival rate of untreated cells (DMSO) is set at 100%, the relative cell survival rate in each group treated with the drug at different concentrations is indicated.

[2] = system: T cells isolated from mouse spleens; experiment: T cell proliferation inhibition (CFSE flow cytometry, anti-CD3/anti-CD28 stimulation); assay type: cell-based; details: mouse spleen T cells, 3 days; for inhibition at 0.01 µM / inhibition at 0.1 µM / inhibition at 1 µM / inhibition at 10 µM / inhibition at 30 µM / inhibition at 50 µM: Mus musculus, T-cell, 72 h, read-out: Proliferation inhibition rate (%)
In short: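 Proliferation inhibition (%) came from flow cytometry of CFSE dilution after 3 days' culture at 37 °C with compound (10 nM, 100 nM, 1, 10, 30, 50 μM; triplicate wells). Cells were magnetically purified T cells from C57BL/6 mouse spleens, 2×10^5 per well, stimulated with 0.5 μg/mL each anti-CD3 and anti-CD28.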

[3] = 48 hours, untreated (DMSO) = 100%
[4] = 1 μM, 48 hours, untreated (DMSO) = 100%
[5] = 10 μM, 48 hours, untreated (DMSO) = 100%
[6] = 30 μM, 48 hours, untreated (DMSO) = 100%

SMILES | viability at 1 µM [1, 3] [%] | viability at 10 µM [1, 3] [%] | viability at 30 µM [1, 3] [%] | viability at 50 µM [1, 3] [%] | inhibition at 0.01 µM ([2]; compound 10 nM) [%] | inhibition at 0.1 µM ([2]; compound 100 nM) [%] | inhibition at 1 µM ([2]; compound 1 μM) [%] | inhibition at 10 µM ([2]; compound 10 μM) [%] | inhibition at 30 µM ([2]; compound 30 μM) [%] | inhibition at 50 µM ([2]; compound 50 μM) [%] | further results
Nc1ncccc1C(=O)NCCCCCCCCCCCCN1CCSCC1 [Compound 4, 2-Amino-N-(12-thio-morpholin-4-yl-dodecyl)-nicotinamide] | 7.58 | 5.49 | 4.68 | 4.45 | 2.7 | 100 | 100 | 100 | 100 | 100 | –
CC(C)CN1CCN(CCCCCCCCCCCCC(=O)Nc2nc(N)c3[nH]cnc3n2)CC1 [Compound 6, 12-[4-(2-methylpropyl)piperazin-1-yl]dodecyl-N-(6-aminopurine-2-yl) carboxamide] | 7.83 | 6.39 | 4.66 | 3.94 | -18.5 | 100 | 100 | 100 | 100 | 100 | –
COC(=O)CN1CCN(CCCCCCCCCCCCC(=O)Nc2nc(N)c3[nH]cnc3n2)CC1 [Compound 7, 12-[4-(2-methoxy-2-oxoethyl)piperazin-1-yl]dodecyl-N-(6-aminopurine-2-yl) carboxamide] | 5.17 | 4.16 | 3.48 | 3.17 | 5.14 | 100 | 100 | 100 | 100 | 100 | –
Nc1nc(NC(=O)CCCCCCCCCCCCN2CCNCC2)nc2nc[nH]c12 [Compound 8, 12-(piperazin-1-yl)dodecyl-N-(6-aminopurine-2-yl) carboxamide] | 10.8 | 6.49 | 5.07 | 4.49 | 4.55 | 32.5 | 100 | 100 | 100 | 100 | –
Nc1nc(NC(=O)CCCCCCCCCCCCN2CCC(O)CC2)nc2nc[nH]c12 [Compound 9, 12-(4-hydroxypiperidin-1-yl)dodecyl-N-(6-aminopurine-2-yl) carboxamide] | 5.32 | 4.19 | 3.36 | 3.14 | – | – | 100 | 100 | 100 | 100 | Proliferation inhibition rate (%) ([2]; compound 10 nM, listed as GO83, 0.01 µM): 38.33%
CN1CCN(C(=O)OC(C)(C)C)CC1CCCCCCCCNC(=O)c1cccnc1N (stereo not drawn) [Compound 12, tert-Butyl 3-(8-(2-aminonicotinamido)octyl)-4-methylpiperazine-1-carboxylate] | 7.6 | 3.79 | 1.64 | 1.13 | – | – | – | – | – | – | –
Nc1ncccc1C(=O)NCCCCCCCCCCCCN1CCCCC1 [Compound 18, 2-amino-N-(12-(piperidin-1-yl)dodecyl)nicotinamide] | 5.28 | 4.5 | 4.09 | 3.44 | 1.87 | 76.1 | 100 | 100 | 100 | 100 | –
CN(C)C1CCN(CCCCCCCCCCCCNC(=O)c2cccnc2N)C1 (stereo not drawn) [Compound 19, 2-Amino-N-(12-(3-(dimethylamino)pyrrolidin-1-yl)dodecyl)nicotinamide] | 8.51 | 7.51 | 5.98 | 5.08 | -14.4 | 100 | 100 | 100 | 100 | 100 | –
Nc1ncccc1C(=O)NCCCCCCCCCCCCN1CCCC1 [Compound 20, 2-Amino-N-(12-(pyrrolidin-1-yl)dodecyl)nicotinamide] | 7.74 | 5.34 | 4.89 | 3.68 | 3.46 | 100 | 100 | 100 | 100 | 100 | –
CC1CN(CCCCCCCCCCCCNC(=O)c2cccnc2N)CC(C)O1 (stereo not drawn) [Compound 21, 2-Amino-N-(12-(2,6-dimethylmorpholino)dodecyl) nicotinamide] | – | – | – | – | – | – | – | – | – | – | Relative cell viability (%), SU-DHL-8 [1, 4]: 9.64%; Relative cell viability (%), SU-DHL-8 [1, 5]: 7.68%; Relative cell viability (%), SU-DHL-8 [1, 6]: 3.70%; Proliferation inhibition rate (%) ([2]; compound 10 nM): −13.87%; Proliferation inhibition rate (%) ([2]; compound 100 nM): 100.00%; Proliferation inhibition rate (%) ([2]; compound 1 μM): 100.00%; Proliferation inhibition rate (%) ([2]; compound 10 μM): 100.00%; Proliferation inhibition rate (%) ([2]; compound 30 μM): 100.00%; Proliferation inhibition rate (%) ([2]; compound 50 μM): 100.00%
CC1(C)CCN(CCCCCCCCCCCCNC(=O)c2cccnc2N)C1 [Compound 22, 2-Amino-N-(12-(3,3-dimethylpyrrolidin-1-yl)dodecyl) nicotinamide] | – | – | – | – | – | – | – | – | – | – | Relative cell viability (%), SU-DHL-8 [1, 4]: 6.46%; Relative cell viability (%), SU-DHL-8 [1, 5]: 2.85%; Relative cell viability (%), SU-DHL-8 [1, 6]: 2.45%; Relative cell viability (%), SU-DHL-8 ([1]; 50 μM, 48 hours, untreated (DMSO) = 100%): 1.67%; Proliferation inhibition rate (%) ([2]; compound 10 nM): −0.80%; Proliferation inhibition rate (%) ([2]; compound 100 nM): 100.00%; Proliferation inhibition rate (%) ([2]; compound 1 μM): 100.00%; Proliferation inhibition rate (%) ([2]; compound 10 μM): 100.00%; Proliferation inhibition rate (%) ([2]; compound 30 μM): 100.00%; Proliferation inhibition rate (%) ([2]; compound 50 μM): 100.00%
Nc1ncccc1C(=O)NCCCCCCCCCCF [Compound 68, 2-Amino-N-(10-fluoro-decyl)-nicotinamide] | 16.1 | 15.3 | – | – | – | – | – | – | – | – | Relative cell viability (%), SU-DHL-8 ([1]; human, 48 h, 30 µM): −2.90%; Relative cell viability (%), SU-DHL-8 ([1]; human, 48 h, 50 µM): −5.64%
Nc1ncccc1C(=O)NCCCCCCCCCCCF [Compound 70, 2-Amino-N-(11-fluoro-undecyl)-nicotinamide] | 5.01 | 4.94 | 1.45 | – | – | – | – | – | – | – | Relative cell viability (%), SU-DHL-8 ([1]; human, 48 h, 50 µM): −0.57%
Cl.Nc1ncccc1C(=O)NCCCCCCCCCCCF [Compound 71, 3-(11-fluoro-undecylcarbamoyl)-pyridin-2-yl-ammonium chloride] | – | – | – | 0.75 | – | – | – | – | – | – | Relative cell viability (%), SU-DHL-8 ([1]; human, 48 h, 1 µM): 5.57%; Relative cell viability (%), SU-DHL-8 ([1]; human, 48 h, 10 µM): 4.05%; Relative cell viability (%), SU-DHL-8 ([1]; human, 48 h, 30 µM): 2.04%
CN1CCN(CCCCCCCCCCCCNC(=O)c2ccccc2Oc2ccccc2)CC1 [Compound 214, N-(12-(4-methylpiperazin-1-yl)dodecyl)-2-phenoxybenzamide] | – | – | – | – | 2.32 | 12.2 | 17.4 | 100 | 100 | 100 | –
CCOc1cc(C(C)(C)C)ccc1C(=O)NCCCCCCCCCCCCN1CCN(C)CC1 [Compound 216, 4-(tert-butyl)-2-ethoxy-N-(12-(4-methylpiperazin-1-yl)dodecyl)benzamide] | – | – | – | – | 2.03 | 2.32 | 13 | 100 | 100 | 100 | –
COc1cccc(OC)c1C(=O)NCCCCCCCCCCCCN1CCN(C)CC1 [Compound 218, 2,6-Dimethoxy-N-(12-(4-methylpiperazin-1-yl)dodecyl)benzamide] | – | – | – | – | 1.31 | 2.74 | 12.4 | 100 | 100 | 100 | –
Cc1c(Cl)cccc1C(=O)NCCCCCCCCCCCCN1CCN(C)CC1 [Compound 219, 3-Chloro-2-methyl-N-(12-(4-methylpiperazin-1-yl)dodecyl)benzamide] | – | – | – | – | -5.37 | 2.18 | 3.48 | 66.5 | 100 | 100 | –
